Results: ChEMBL document CHEMBL1201862, “PubChem BioAssay data set” (2004)
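Cultured in 96-well plates, cells were exposed to test compound for 48 hours across five concentrations. GI50 is the concentration that inhibits growth by half.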 Activity calls are given as the source filed them. No stated cut-off is given here; in the data, active = GI50 up to about 1.1 µM and inactive = higher.

Assays:
Assay in all cases: DTP human tumour cell line panel, 48 h
M14 = system: M14
U-251 = system: U-251
MOLT-4 = system: MOLT-4
NCI-H226 = system: NCI-H226
786-0 = system: 786-0
UO-31 = system: UO-31
ACHN = system: ACHN
SNB-19 = system: SNB-19
HCC 2998 = system: HCC 2998
KM12 = system: KM12
K562 = system: K562
SW-620 = system: SW-620
SN12C = system: SN12C
HOP-18 = system: HOP-18
OVCAR-3 = system: OVCAR-3
HCT-15 = system: HCT-15
NCI-H460 = system: NCI-H460
Malme-3M = system: Malme-3M
KM-20L2 = system: KM-20L2
UACC-62 = system: UACC-62
A549 = system: A549
SF-539 = system: SF-539
LXFL 529 = system: LXFL 529
OVCAR-8 = system: OVCAR-8
UACC-257 = system: UACC-257
DLD-1 = system: DLD-1
COLO 205 = system: COLO 205
SK-MEL-2 = system: SK-MEL-2
SNB-75 = system: SNB-75
IGROV-1 = system: IGROV-1
SF-268 = system: SF-268
CCRF-CEM = system: CCRF-CEM
NCI-H23 = system: NCI-H23
RPMI-8226 = system: RPMI-8226
EKVX = system: EKVX
XF498 = system: XF498
HOP-92 = system: HOP-92
HOP-62 = system: HOP-62
OVCAR-4 = system: OVCAR-4
SK-MEL-28 = system: SK-MEL-28
TK-10 = system: TK-10
SR = system: SR
RXF 393 = system: RXF 393
DMS-273 = system: DMS-273
SF-295 = system: SF-295
CAKI-1 = system: CAKI-1
NCI-H522 = system: NCI-H522
M19-MEL = system: M19-MEL
HL-60 = system: HL-60
HT-29 = system: HT-29
LOX IMVI = system: LOX IMVI
DMS-114 = system: DMS-114
OVCAR-5 = system: OVCAR-5
SK-MEL-5 = system: SK-MEL-5
SK-OV-3 = system: SK-OV-3
HCT-116 = system: HCT-116
A498 = system: A498

Structure (SMILES): Cc1ccc(S(=O)(=O)ON/N=C2/C3OC3[C@@H]3CCCC[C@H]23)cc1 (stereo partly drawn)
- GI50 (M14): > 100 µM (inactive)
- GI50 (U-251): > 100 µM (inactive)
- GI50 (MOLT-4): > 100 µM (inactive)
- GI50 (NCI-H226): > 100 µM (inactive)
- GI50 (786-0): > 100 µM (inactive)
- GI50 (UO-31): > 100 µM (inactive)
- GI50 (ACHN): > 100 µM (inactive)
- GI50 (SNB-19): > 100 µM (inactive)
- GI50 (HCC 2998): 71.4 µM (inactive)
- GI50 (KM12): > 100 µM (inactive)
- GI50 (K562): > 100 µM (inactive)
- GI50 (SW-620): > 100 µM (inactive)
- GI50 (SN12C): > 100 µM (inactive)
- GI50 (HOP-18): > 100 µM (inactive)
- GI50 (OVCAR-3): > 100 µM (inactive)
- GI50 (HCT-15): > 100 µM
- GI50 (NCI-H460): > 100 µM (inactive)
- GI50 (Malme-3M): > 100 µM (inactive)
- GI50 (KM-20L2): > 100 µM (inactive)
- GI50 (UACC-62): > 100 µM (inactive)
- GI50 (A549): > 100 µM (inactive)
- GI50 (SF-539): > 100 µM (inactive)
- GI50 (LXFL 529): > 100 µM (inactive)
- GI50 (OVCAR-8): 0.507 µM (active)
- GI50 (UACC-257): 0.692 µM (active)
- GI50 (DLD-1): > 100 µM (inactive)
- GI50 (COLO 205): > 100 µM (inactive)
- GI50 (SK-MEL-2): > 100 µM (inactive)
- GI50 (SNB-75): > 100 µM (inactive)
- GI50 (IGROV-1): > 100 µM (inactive)
- GI50 (SF-268): > 100 µM (inactive)
- GI50 (CCRF-CEM): > 100 µM (inactive)
- GI50 (NCI-H23): > 100 µM (inactive)
- GI50 (RPMI-8226): > 100 µM (inactive)
- GI50 (EKVX): > 100 µM (inactive)
- GI50 (XF498): > 100 µM (inactive)
- GI50 (HOP-92): > 100 µM (inactive)
- GI50 (HOP-62): > 100 µM (inactive)
- GI50 (OVCAR-4): > 100 µM (inactive)
- GI50 (SK-MEL-28): > 100 µM (inactive)
- GI50 (TK-10): > 100 µM (inactive)
- GI50 (SR): > 100 µM (inactive)
- GI50 (RXF 393): 39.1 µM (inactive)
- GI50 (DMS-273): > 100 µM (inactive)
- GI50 (SF-295): 1.19 µM (inactive)
- GI50 (CAKI-1): > 100 µM (inactive)
- GI50 (NCI-H522): > 100 µM (inactive)
- GI50 (M19-MEL): > 100 µM (inactive)
- GI50 (HL-60): > 100 µM (inactive)
- GI50 (HT-29): > 100 µM (inactive)

Structure (SMILES): CC12OC(=O)C(C#N)C1(C)C1C(=O)CCCC12 (stereo not drawn)
- GI50 (M14): > 100 µM (inactive)
- GI50 (U-251): > 100 µM (inactive)
- GI50 (MOLT-4): > 100 µM (inactive)
- GI50 (NCI-H226): > 100 µM (inactive)
- GI50 (786-0): > 100 µM (inactive)
- GI50 (UO-31): > 100 µM (inactive)
- GI50 (ACHN): > 100 µM (inactive)
- GI50 (SNB-19): > 100 µM (inactive)
- GI50 (KM12): > 100 µM (inactive)
- GI50 (K562): > 100 µM (inactive)
- GI50 (SW-620): > 100 µM (inactive)
- GI50 (LOX IMVI): > 100 µM (inactive)
- GI50 (SN12C): > 100 µM (inactive)
- GI50 (DMS-114): > 100 µM (inactive)
- GI50 (OVCAR-5): > 100 µM (inactive)
- GI50 (HOP-18): > 100 µM (inactive)
- GI50 (OVCAR-3): > 100 µM (inactive)
- GI50 (SK-MEL-5): > 100 µM (inactive)
- GI50 (HCT-15): > 100 µM
- GI50 (NCI-H460): > 100 µM (inactive)
- GI50 (Malme-3M): > 100 µM (inactive)
- GI50 (KM-20L2): > 100 µM (inactive)
- GI50 (UACC-62): > 100 µM (inactive)
- GI50 (A549): > 100 µM (inactive)
- GI50 (SF-539): > 100 µM (inactive)
- GI50 (LXFL 529): > 100 µM (inactive)
- GI50 (OVCAR-8): > 100 µM (inactive)
- GI50 (SK-OV-3): > 100 µM (inactive)
- GI50 (DLD-1): > 100 µM (inactive)
- GI50 (COLO 205): > 100 µM (inactive)
- GI50 (SK-MEL-2): > 100 µM (inactive)
- GI50 (SNB-75): > 100 µM (inactive)
- GI50 (IGROV-1): > 100 µM (inactive)
- GI50 (SF-268): > 100 µM (inactive)
- GI50 (CCRF-CEM): > 100 µM (inactive)
- GI50 (NCI-H23): > 100 µM (inactive)
- GI50 (RPMI-8226): > 100 µM (inactive)
- GI50 (EKVX): > 100 µM (inactive)
- GI50 (XF498): > 100 µM (inactive)
- GI50 (OVCAR-4): > 100 µM (inactive)
- GI50 (SK-MEL-28): > 100 µM (inactive)
- GI50 (TK-10): > 100 µM (inactive)
- GI50 (HCT-116): > 100 µM (inactive)
- GI50 (RXF 393): > 100 µM (inactive)
- GI50 (DMS-273): > 100 µM (inactive)
- GI50 (SF-295): > 100 µM (inactive)
- GI50 (M19-MEL): > 100 µM (inactive)
- GI50 (HL-60): > 100 µM (inactive)

Structure (SMILES): Cc1cn(C2CC(CCCO)C(CO)O2)c(=O)[nH]c1=O (stereo not drawn)
- GI50 (M14): > 100 µM (inactive)
- GI50 (U-251): > 100 µM (inactive)
- GI50 (786-0): > 100 µM (inactive)
- GI50 (UO-31): > 100 µM (inactive)
- GI50 (ACHN): > 100 µM (inactive)
- GI50 (SNB-19): > 100 µM (inactive)
- GI50 (HCC 2998): > 100 µM (inactive)
- GI50 (KM12): > 100 µM (inactive)
- GI50 (K562): > 100 µM (inactive)
- GI50 (SW-620): > 100 µM (inactive)
- GI50 (LOX IMVI): > 100 µM (inactive)
- GI50 (A498): > 100 µM (inactive)
- GI50 (SN12C): > 100 µM (inactive)
- GI50 (DMS-114): > 100 µM (inactive)
- GI50 (OVCAR-5): > 100 µM (inactive)
- GI50 (OVCAR-3): > 100 µM (inactive)
- GI50 (SK-MEL-5): > 100 µM (inactive)
- GI50 (HCT-15): > 100 µM
- GI50 (NCI-H460): > 100 µM (inactive)
- GI50 (Malme-3M): > 100 µM (inactive)
- GI50 (KM-20L2): > 100 µM (inactive)
- GI50 (UACC-62): > 100 µM (inactive)
- GI50 (A549): > 100 µM (inactive)
- GI50 (LXFL 529): > 100 µM (inactive)
- GI50 (OVCAR-8): > 100 µM (inactive)
- GI50 (SK-OV-3): > 100 µM (inactive)
- GI50 (UACC-257): > 100 µM (inactive)
- GI50 (DLD-1): > 100 µM (inactive)
- GI50 (COLO 205): > 100 µM (inactive)
- GI50 (SK-MEL-2): > 100 µM (inactive)
- GI50 (IGROV-1): > 100 µM (inactive)
- GI50 (SF-268): > 100 µM (inactive)
- GI50 (NCI-H23): > 100 µM (inactive)
- GI50 (RPMI-8226): > 100 µM (inactive)
- GI50 (EKVX): > 100 µM (inactive)
- GI50 (XF498): > 100 µM (inactive)
- GI50 (HOP-62): > 100 µM (inactive)
- GI50 (OVCAR-4): > 100 µM (inactive)
- GI50 (SK-MEL-28): > 100 µM (inactive)
- GI50 (TK-10): > 100 µM (inactive)
- GI50 (HCT-116): > 100 µM (inactive)
- GI50 (SR): > 100 µM (inactive)
- GI50 (RXF 393): > 100 µM (inactive)
- GI50 (DMS-273): > 100 µM (inactive)
- GI50 (SF-295): > 100 µM (inactive)
- GI50 (CAKI-1): > 100 µM (inactive)
- GI50 (NCI-H522): > 100 µM (inactive)
- GI50 (M19-MEL): > 100 µM (inactive)
- GI50 (HL-60): > 100 µM (inactive)
- GI50 (HT-29): > 100 µM (inactive)
